Key:
Type in all cases: cell-based, human
A549R cells [1] = assay: Real-time cell growth and proliferation assay (xCELLigence)
Experimental: In addition, a real-time cell growth and proliferation assay using an xCELLigence System was utilized to confirm the high toxicity of complex 4 on A549R cells. […] In contrast, A549R cells were killed by treatment with complex 4 in a concentration-dependent manner.
This experiment was performed using an xCELLigence RTCA DP system real time cell analyzer (Roche Diagnostics GmbH, Germany). In brief, 80 μL of cell culture media was added to each well of a 16-well plate (E-plate 16, Roche Diagnostics GmbH, Germany). The 16-well plates were then connected to the system and checked for suitable electrical contacts in the real time cell analyzer, and the background impedance was measured for 24 s. Meanwhile, the A549R cells were suspended in cell culture medium and adjusted to 5 × 10^4 cells/mL, and 100 μL of each cell suspension was added to each well of […]. Approximately 24 h after seeding, the A549R cells were in the logarithmic phase of growth, and a wide range of concentrations of complex 4 and cisplatin (100 μM) were added. The cells were automatically monitored every 15 min over 48 h by the xCELLigence system. Data were analyzed using RTCA software (version 1.2) that was supplied with the instrument.

A549R = assay: MTT cytotoxicity assay, cisplatin-resistant A549R; conditions: 48 h, mean ± SD of three experiments
Experimental: Compounds 1–4 were evaluated against three tumor cell lines derived from different tissues, including the cervix (HeLa), lung (A549) and cisplatin-resistant lung (A549R) tissues. For comparison, the cytotoxicity of cisplatin was also evaluated. As a control, the toxicities of the complexes were also tested against the normal human cell line (LO2).
The human cervix carcinoma cell line (HeLa), the lung carcinoma cell lines (A549 and A549R), and the human hepatocyte cell line (LO2) were obtained from the Experimental Animal Center at Sun Yat-Sen University (Guangzhou, China). The cells were maintained in Dulbecco’s modified Eagle’s medium (DMEM, Gibco BRL) or Roswell Park Memorial Institute 1640 (RPMI 1640, Gibco BRL) medium supplemented with 10% fetal bovine serum (FBS, Gibco BRL), 100 μg/mL streptomycin, and 100 U/mL penicillin (Gibco BRL) in a humidified incubator under 5% CO2 and 20% O2 at 37 °C. To maintain the resistant phenotype, A549R cells were incubated with 5 μM cisplatin and cultured in drug-free medium for at least a week before use.
The cytotoxicity of the ruthenium complexes and cisplatin were determined by an MTT assay. Briefly, cells were seeded into 96-well microtiter plates at 1 × 10^4 cells per well and grown overnight at 37 °C in a 5% CO2 incubator; then, different concentrations of the complexes in cell culture medium were added to the cultures. The plates were then incubated in an incubator for 48 h under the same conditions. The stock MTT dye solution (15 μL, 5 mg/mL) was added to each well. After 4 h of incubation, the cultures were removed and 150 μL of DMSO was added to each well. The optical density of each well was measured on a microplate spectrophotometer at a wavelength of 595 nm.

A549R cells [2] = assay: Subcellular distribution study by ICP-MS; conditions: 2.0 μM, 12 h
Experimental: To understand the high sensitivity of cancer cells to Ru(II) complexes, the extent of cellular uptake was investigated with inductively coupled plasma mass spectrometry (ICP-MS) by treating the HeLa, A549, A549R and LO2 cell lines with 2.0 μM concentrations of the Ru(II) complexes and cisplatin for 12 h. […] In this study, the cellular uptake and lipophilicity were distinctly correlated and followed the order: 4 >3 >2 >1. Complex 4 had the best accumulation, but the amount of Ru in LO2 cells was far less than that in the three cancer lines, indicating selective accumulation and improved efficiency for treating cancer. Cisplatin was taken up more efficiently by the sensitive cell line (A549) than by the cisplatin-resistant cell line (A549R). […] However, less than 1.5% of the cellular platinum was accumulated in the mitochondrial fraction of the A549R cells. Therefore, complex 4 could function in a different manner than cisplatin in A549R cells, which would be an appropriate solution to combat cisplatin resistance in tumor cells.
A549R cells were plated at a density of 1 × 10^5 cells/mL in 10 mL of DMEM for 24 h at 37 °C under 5% CO2 and 20% O2. […] The ruthenium or platinum contents were determined using inductively coupled plasma mass spectrometry (ICP-MS Thermo Elemental Co., Ltd.).

A549R MCTSs = assay: Growth inhibition of drug-treated MCTSs (size by imaging); conditions: 1.0 and 2.0 μM
Description: Traditional research on the efficacy of cancer drugs is usually performed in two-dimensional (2-D) cell cultures, which may not be a true indicator of the in vivo effectiveness of cancer treatments. This is in part due to the absence of cell-cell or cell-extracellular matrix interactions in 2-D cell models. Therefore, the development of cell culture models that can close the gap between conventional 2-D cell experiments and animal studies is necessary to study the cytotoxicity and anti-proliferative activities of drugs. Multicellular tumor spheroids (MCTSs) are heterogeneous cellular aggregates that have properties of solid tumors, such as nutrient and oxygen gradients, hypoxic/necrotic regions, cell-cell matrix interactions, and gene expression.
MCTSs were cultured using the liquid overlay method. A549R cells in the exponential growth phase were dissociated by a trypsin/EDTA solution to gain single-cell suspensions. A number of 3000 diluted A549R cells were transferred to 1.5% agarose-coated transparent 96-well plates with 200 μL of DMEM containing 10% serum. The single cells formed MCTS aggregates approximately 400 μm in diameter after three days with 5% CO2 and 20% O2 at 37 °C. […]

For Ru(phen)(bzq)(tbtfpip)(PF6) [Complex 4], the “effect on A549R cell proliferation (xCELLigence)” value (A549R cells [1]; 0.5 μM) was “began to die after a short delay”, the “effect on A549R cell proliferation (xCELLigence)” value (A549R cells [1]; 2.0 μM) was “rapidly abolished cellular proliferation” and the IC50 (A549R) was 800 ± 100 nM. For the same substance, the “share of cellular metal accumulated in the mitochondrial fraction” value (A549R cells [2]) was “over 55%” and the “change in size of A549R MCTSs” value (A549R MCTSs) was “decreased in size over time”.
